Test: Three-treatment crossover pharmacokinetics of IN nalmefene, three dosing regimens (Example 13)
Conditions: human, plasma, […]

## C=C1CC[C@@]2(O)[C@H]3Cc4ccc(O)c5c4[C@@]2(CCN3CC2CC2)[C@H]1O5 [Nalmefene, 17-cyclopropylmethyl-4,5α-epoxy-6-methylenemorphinan-3,14-diol]
other: intranasal (IN spray), 6 mg, Mean, Time 0.00, T3: 6 mg nalmefene HCl IN, two 0.1 mL sprays in one nostril
  concentration at 0 h: 0 ng/mL
other: intranasal (IN spray), 6 mg, Mean, Time 0.0416, T3: 6 mg nalmefene HCl IN, two 0.1 mL sprays in one nostril
  concentration at 2.5 min: 1.35 ng/mL
other: intranasal (IN spray), 6 mg, Mean, Time 0.0833, T3: 6 mg nalmefene HCl IN, two 0.1 mL sprays in one nostril
  concentration at […]: 5.05 ng/mL
other: intranasal (IN spray), 6 mg, Mean, Time 0.166, T3: 6 mg nalmefene HCl IN, two 0.1 mL sprays in one nostril
  concentration at […]: 14.1 ng/mL
other: intranasal (IN spray), 6 mg, Mean, Time 0.250, T3: 6 mg nalmefene HCl IN, two 0.1 mL sprays in one nostril
  concentration at […]: 16.9 ng/mL
other: intranasal (IN spray), 6 mg, Mean, Time 0.333, T3: 6 mg nalmefene HCl IN, two 0.1 mL sprays in one nostril
  concentration at […]: 14.6 ng/mL
other: intranasal (IN spray), 6 mg, Mean, Time 0.750, T3: 6 mg nalmefene HCl IN, two 0.1 mL sprays in one nostril
  concentration at […]: 9.92 ng/mL
other: intranasal (IN spray), 6 mg, Mean, Time 1.00, T3: 6 mg nalmefene HCl IN, two 0.1 mL sprays in one nostril
  concentration at 1 h: 9.59 ng/mL
other: intranasal (IN spray), 6 mg, Mean, Time 2.00, T3: 6 mg nalmefene HCl IN, two 0.1 mL sprays in one nostril
  concentration at 2 h: 8.86 ng/mL
other: intranasal (IN spray), 6 mg, Mean, Time 3.00, T3: 6 mg nalmefene HCl IN, two 0.1 mL sprays in one nostril
  concentration at 3 h: 6.9 ng/mL
other: intranasal (IN spray), 6 mg, Mean, Time 4.00, T3: 6 mg nalmefene HCl IN, two 0.1 mL sprays in one nostril
  concentration at 4 h: 5.37 ng/mL
other: intranasal (IN spray), 6 mg, Mean, Time 6.00, T3: 6 mg nalmefene HCl IN, two 0.1 mL sprays in one nostril
  concentration at 6 h: 3.69 ng/mL
other: intranasal (IN spray), 6 mg, Mean, Time 8.00, T3: 6 mg nalmefene HCl IN, two 0.1 mL sprays in one nostril
  concentration at 8 h: 2.69 ng/mL
other: intranasal (IN spray), 6 mg, Mean, Time 12.0, T3: 6 mg nalmefene HCl IN, two 0.1 mL sprays in one nostril
  concentration at 12 h: 1.93 ng/mL
other: intranasal (IN spray), 6 mg, Mean, Time 18.0, T3: 6 mg nalmefene HCl IN, two 0.1 mL sprays in one nostril
  concentration at 18 h: 1.11 ng/mL
other: intranasal (IN spray), 6 mg, Mean, Time 24.0, T3: 6 mg nalmefene HCl IN, two 0.1 mL sprays in one nostril
  concentration at 24 h: 0.792 ng/mL
other: intranasal (IN spray), 6 mg, Mean, Time 48.0, T3: 6 mg nalmefene HCl IN, two 0.1 mL sprays in one nostril
  concentration at 48 h: 0.182 ng/mL
other: intranasal (IN spray), 6 mg, Median, Time 0.00, T3: 6 mg nalmefene HCl IN, two 0.1 mL sprays in one nostril
  concentration at 0 h: 0 ng/mL
other: intranasal (IN spray), 6 mg, Median, Time 0.0416, T3: 6 mg nalmefene HCl IN, two 0.1 mL sprays in one nostril
  concentration at 2.5 min: 0.746 ng/mL
other: intranasal (IN spray), 6 mg, Median, Time 0.0833, T3: 6 mg nalmefene HCl IN, two 0.1 mL sprays in one nostril
  concentration at […]: 2.58 ng/mL
other: intranasal (IN spray), 6 mg, Median, Time 0.125, T3: 6 mg nalmefene HCl IN, two 0.1 mL sprays in one nostril
  concentration at […]: 4.96 ng/mL
other: intranasal (IN spray), 6 mg, Median, Time 0.166, T3: 6 mg nalmefene HCl IN, two 0.1 mL sprays in one nostril
  concentration at […]: 8.55 ng/mL
other: intranasal (IN spray), 6 mg, Median, Time 0.250, T3: 6 mg nalmefene HCl IN, two 0.1 mL sprays in one nostril
  concentration at […]: 12.8 ng/mL
other: intranasal (IN spray), 6 mg, Median, Time 0.750, T3: 6 mg nalmefene HCl IN, two 0.1 mL sprays in one nostril
  concentration at […]: 9.69 ng/mL
other: intranasal (IN spray), 6 mg, Median, Time 1.00, T3: 6 mg nalmefene HCl IN, two 0.1 mL sprays in one nostril
  concentration at 1 h: 8.88 ng/mL
other: intranasal (IN spray), 6 mg, Median, Time 2.00, T3: 6 mg nalmefene HCl IN, two 0.1 mL sprays in one nostril
  concentration at 2 h: 8.6 ng/mL
other: intranasal (IN spray), 6 mg, Median, Time 3.00, T3: 6 mg nalmefene HCl IN, two 0.1 mL sprays in one nostril
  concentration at 3 h: 6.35 ng/mL
other: intranasal (IN spray), 6 mg, Median, Time 4.00, T3: 6 mg nalmefene HCl IN, two 0.1 mL sprays in one nostril
  concentration at 4 h: 4.89 ng/mL
other: intranasal (IN spray), 6 mg, Median, Time 6.00, T3: 6 mg nalmefene HCl IN, two 0.1 mL sprays in one nostril
  concentration at 6 h: 3.51 ng/mL
other: intranasal (IN spray), 6 mg, Median, Time 8.00, T3: 6 mg nalmefene HCl IN, two 0.1 mL sprays in one nostril
  concentration at 8 h: 2.46 ng/mL
other: intranasal (IN spray), 6 mg, Median, Time 12.0, T3: 6 mg nalmefene HCl IN, two 0.1 mL sprays in one nostril
  concentration at 12 h: 1.82 ng/mL
other: intranasal (IN spray), 6 mg, Median, Time 18.0, T3: 6 mg nalmefene HCl IN, two 0.1 mL sprays in one nostril
  concentration at 18 h: 1.12 ng/mL
other: intranasal (IN spray), 6 mg, Median, Time 24.0, T3: 6 mg nalmefene HCl IN, two 0.1 mL sprays in one nostril
  concentration at 24 h: 0.729 ng/mL
other: intranasal (IN spray), 6 mg, Median, Time 48.0, T3: 6 mg nalmefene HCl IN, two 0.1 mL sprays in one nostril
  concentration at 48 h: 0.176 ng/mL
other: intranasal (IN) spray, 3 mg, Max, T1 (3 mg IN, one spray in one nostril), time 0.00
  concentration at 0 h: 0 ng/mL
other: intranasal (IN) spray, 3 mg, Max, T1 (3 mg IN, one spray in one nostril), time 0.0416
  concentration at 2.5 min: 0.766 ng/mL
other: intranasal (IN) spray, 3 mg, Max, T1 (3 mg IN, one spray in one nostril), time 0.125
  concentration at […]: 16.9 ng/mL
other: intranasal (IN) spray, 3 mg, Max, T1 (3 mg IN, one spray in one nostril), time 0.166
  concentration at […]: 20.4 ng/mL
other: intranasal (IN) spray, 3 mg, Max, T1 (3 mg IN, one spray in one nostril), time 0.250
  concentration at […]: 22.1 ng/mL
other: intranasal (IN) spray, 3 mg, Max, T1 (3 mg IN, one spray in one nostril), time 0.333
  concentration at […]: 20.2 ng/mL
other: intranasal (IN) spray, 3 mg, Max, T1 (3 mg IN, one spray in one nostril), time 1.00
  concentration at 1 h: 9.54 ng/mL
other: intranasal (IN) spray, 3 mg, Max, T1 (3 mg IN, one spray in one nostril), time 2.00
  concentration at 2 h: 7.64 ng/mL
other: intranasal (IN) spray, 3 mg, Mean, T1 (3 mg IN, one spray in one nostril), time 3.00
  concentration at 3 h: 3.7 ng/mL
other: intranasal (IN) spray, 3 mg, Mean, T1 (3 mg IN, one spray in one nostril), time 4.00
  concentration at 4 h: 2.99 ng/mL
other: intranasal (IN) spray, 3 mg, Mean, T1 (3 mg IN, one spray in one nostril), time 6.00
  concentration at 6 h: 2.06 ng/mL
other: intranasal (IN) spray, 3 mg, Mean, T1 (3 mg IN, one spray in one nostril), time 8.00
  concentration at 8 h: 1.44 ng/mL
other: intranasal (IN) spray, 3 mg, Mean, T1 (3 mg IN, one spray in one nostril), time 12.0
  concentration at 12 h: 0.992 ng/mL
other: intranasal (IN) spray, 3 mg, Mean, T1 (3 mg IN, one spray in one nostril), time 18.0
  concentration at 18 h: 0.591 ng/mL
other: intranasal (IN) spray, 3 mg, Mean, T1 (3 mg IN, one spray in one nostril), time 24.0
  concentration at 24 h: 0.412 ng/mL
other: intranasal (IN) spray, 3 mg, Mean, T1 (3 mg IN, one spray in one nostril), time 48.0
  concentration at 48 h: 0.0942 ng/mL
other: intranasal (IN) spray, 3 mg, Median, T1 (3 mg IN, one spray in one nostril), time 0.0416
  concentration at 2.5 min: 0.362 ng/mL
other: intranasal (IN) spray, 3 mg, Median, T1 (3 mg IN, one spray in one nostril), time 0.0833
  concentration at […]: 1.29 ng/mL
other: intranasal (IN) spray, 3 mg, Median, T1 (3 mg IN, one spray in one nostril), time 0.125
  concentration at […]: 3.65 ng/mL
other: intranasal (IN) spray, 3 mg, Median, T1 (3 mg IN, one spray in one nostril), time 0.166
  concentration at […]: 6.28 ng/mL
other: intranasal (IN) spray, 3 mg, Median, T1 (3 mg IN, one spray in one nostril), time 0.250
  concentration at […]: 8.04 ng/mL
other: intranasal (IN) spray, 3 mg, Median, T1 (3 mg IN, one spray in one nostril), time 0.333
  concentration at […]: 8.07 ng/mL
other: intranasal (IN) spray, 3 mg, Median, T1 (3 mg IN, one spray in one nostril), time 0.750
  concentration at […]: 5.85 ng/mL
other: intranasal (IN) spray, 3 mg, Median, T1 (3 mg IN, one spray in one nostril), time 2.00
  concentration at 2 h: 4.62 ng/mL
other: intranasal (IN) spray, 3 mg, Min, T1 (3 mg IN, one spray in one nostril), time 3.00
  concentration at 3 h: 2.16 ng/mL
other: intranasal (IN) spray, 3 mg, Min, T1 (3 mg IN, one spray in one nostril), time 4.00
  concentration at 4 h: 1.97 ng/mL
other: intranasal, 3 mg, Mean, T1 (3 mg IN, one spray in one nostril), time 0.00
  concentration at 0 h: 0 ng/mL
other: intranasal, 3 mg, Mean, T1 (3 mg IN, one spray in one nostril), time 0.0416
  concentration at 2.5 min: 0.353 ng/mL
other: intranasal, 3 mg, Mean, T1 (3 mg IN, one spray in one nostril), time 0.0833
  concentration at […]: 2.38 ng/mL
other: intranasal, 3 mg, Mean, T1 (3 mg IN, one spray in one nostril), time 0.125
  concentration at […]: 5.1 ng/mL
other: intranasal, 3 mg, Mean, T1 (3 mg IN, one spray in one nostril), time 0.166
  concentration at […]: 7.78 ng/mL
other: intranasal, 3 mg, Mean, T1 (3 mg IN, one spray in one nostril), time 0.250
  concentration at […]: 9.17 ng/mL
other: intranasal, 3 mg, Mean, T1 (3 mg IN, one spray in one nostril), time 0.333
  concentration at […]: 8.79 ng/mL
other: intranasal, 3 mg, Mean, T1 (3 mg IN, one spray in one nostril), time 0.750
  concentration at […]: 5.99 ng/mL
other: intranasal, 3 mg, Mean, T1 (3 mg IN, one spray in one nostril), time 1.00
  concentration at 1 h: 5.47 ng/mL
other: intranasal, 3 mg, Mean, T1 (3 mg IN, one spray in one nostril), time 2.00
  concentration at 2 h: 4.99 ng/mL
other: intranasal, 3 mg, Median, T1 (3 mg IN, one spray in one nostril), time 0.00
  concentration at 0 h: 0 ng/mL
other: intranasal, 3 mg, Median, T1 (3 mg IN, one spray in one nostril), time 1.00
  concentration at 1 h: 5.11 ng/mL
other: intranasal, 3 mg, Min, T1 (3 mg IN, one spray in one nostril), time 0.00
  concentration at 0 h: 0 ng/mL
other: intranasal, 3 mg, Min, T1 (3 mg IN, one spray in one nostril), time 0.0416
  concentration at 2.5 min: 0 ng/mL
other: intranasal, 3 mg, Min, T1 (3 mg IN, one spray in one nostril), time 0.0833
  concentration at […]: 0.319 ng/mL
other: intranasal, 3 mg, Min, T1 (3 mg IN, one spray in one nostril), time 0.125
  concentration at […]: 0.642 ng/mL
other: intranasal, 3 mg, Min, T1 (3 mg IN, one spray in one nostril), time 0.166
  concentration at […]: 1.09 ng/mL
other: intranasal, 3 mg, Min, T1 (3 mg IN, one spray in one nostril), time 0.250
  concentration at […]: 1.88 ng/mL
other: intranasal, 3 mg, Min, T1 (3 mg IN, one spray in one nostril), time 0.333
  concentration at […]: 1.97 ng/mL
other: intranasal, 3 mg, Min, T1 (3 mg IN, one spray in one nostril), time 0.750
  concentration at […]: 2.52 ng/mL
other: intranasal, 3 mg, Min, T1 (3 mg IN, one spray in one nostril), time 2.00
  concentration at 2 h: 3.28 ng/mL
other: intranasal, 6 mg, individual subject, Time 0.00, T3: 6 mg nalmefene HCl IN, two 0.1 mL sprays in one nostril
  concentration at 0 h: 0 ng/mL

— patent US12290596B2, “Compositions and methods for the treatment of opioid overdose” (priority 2021, dated 2025)
